Results published in article PMC8000395, “Effective Small Molecule Antibacterials from a Novel Anti-Protein Secretion Screen” (Microorganisms, 2021).
Where “and” joins values, the source holds several entries; their conditions need not be identical. Equal entries are not always repeated. Where two headings read alike, the source gives them in different places.

Legend:
[1] = tested on: E. coli BW25113::imp-2413+; assay: Antimicrobial activity test (growth, OD600); details: Escherichia coli, BW25113, read-out: Viability IC50, BW25113::imp-2413+
[2] = tested on: B. subtilis ATCC6633; assay: Antimicrobial activity test (growth, OD600); format: cell-based; details: Bacillus subtilis, ATCC6633; 20 h, 37 °C, OD600; read-out: Bacterial Viability IC50, B. subtilis ATCC6633
[3] = tested on: E. coli BW25113; assay: Antimicrobial activity test (growth, OD600); format: cell-based; details: Escherichia coli, 20 h, 37 °C, read-out: Bacterial Viability IC50, E. coli BW25113
[4] = tested on: Providencia stuartii; assay: Antimicrobial activity test (growth, OD600); format: cell-based; details: read-out: Bacterial Viability (IC50)
[5] = tested on: Shigella sonnei; assay: Antimicrobial activity test (growth, OD600); format: cell-based; details: read-out: Bacterial Viability (IC50)
[6] = tested on: Serratia marcescens; assay: Antimicrobial activity test (growth, OD600); format: cell-based; details: read-out: Bacterial Viability (IC50)
[7] = Turbidimetric kinetic aqueous solubility assay; format: physicochemical; details: kinetic from dmso stock
Method: The determination of the aqueous solubility of compounds in this assay is based on the principle of turbidimetry. Turbidimetric methods rely on the measurement of light scattering from precipitate in solution to determine the solubility. Precipitation is identified by an absorbance increase due to blockage of the light by the particles at the wavelength of 570 nm. Compounds, stored in matrix vials (Thermo Fisher) at a stock concentration of 30 mM or 10 mM in 100% Dimethyl sulfoxide (DMSO), were used to make a serial dilution (dose-response) in a 96-well v-bottom propylene plate (Greiner, 651201). Serial dilutions are made to perform the solubility assay; they were made row-wise and start with undiluted compound (30 mM or 10 mM) in the first well and were then 1 over 3 diluted further on. The serial dilutions were eight doses long and contain six compounds per plate maximal (rows B-G). Columns 1 and 12 were filled with 100% DMSO for control purposes. The dose-response plates were 200-times diluted in 300 µL Phosphate Buffered Saline (PBS; pH = 7–7.2 without Ca^2+/Mg^2+) (Gibco, 14190-144) by transferring 1.5 µL of serially diluted compound. […] Dilutions were made by diluting one 96-well plate in two 96-well, flat-bottom, polystyrene plates (Greiner, 655101). These plates were then incubated at room temperature for 1h. After 1h incubation, the plates were read on the envision (Perkin Elmer) at 570 nm.
The data of this assay is reported as “Soluble at” value for each compound. This “soluble at” value represents the concentration where the compound is still soluble and is the concentration before the first precipitated concentration. The first precipitated concentration is the concentration where the absorbance value is more than five standard deviations higher than the average background absorbance. The average background absorbance and the standard deviation are calculated on the 0.5% DMSO controls in columns 1 and 12.

[8] = tested on: Gram-negative and Gram-positive bacteria; assay: Antimicrobial activity test, summary over Gram-negative and Gram-positive bacteria; format: cell-based; details: for Antibacterial character: 19 Gram-negative and Gram-positive species evaluated; for IC50: summary over species, read-out: Viability of Gram-negative and Gram-positive bacteria IC50 (range over species)
[9] = tested on: Enterobacter cloacae; assay: Antimicrobial activity test (growth, OD600); format: cell-based; details: read-out: Bacterial Viability (IC50)
[10] = tested on: HEK293T cells; details: 24 h; for Toxicity of Mammalian Cells (HEK293T) LD50: human
Method: Hek293T cells were harvested and diluted obtaining a cell suspension with a concentration of 200,000 cells/mL in complete growth medium (DMEM, 4.5 g/L d-glucose, pyruvate 1 mM, 0.075% bicarbonate and 10% Fetal Bovine serum). Of this cell suspension, 50 µL (10,000/well) was seeded in a 384 well culture plate (white polystyrene, tissue culture treated) and incubated at 37 °C-5% CO2 for 4 h in a moisturized incubator, which enables the cells to adhere. After the incubation, small chemical compounds were diluted in medium and 10 µL of a compound solution was added onto the cells, ending up with the required compound concentration. The cells were incubated for 24 h at 37 °C-5% CO2 in a moisturized incubator where after × µL medium was removed to equalize the liquid levels within one plate ending up with ±25 µL/well. The amount of remaining cells/well was determined with ATPlite^TM 1step (Perkin Elmer) Adenosine TriPhosphate (ATP) monitoring system, which is based on firefly luciferase.
The cytotoxicity was calculated by subtracting RLU (relative light units) obtained from the cells incubated with a compound from the RLUs obtained from cells in the presence of the vehicle.
The cytotoxic effect of a test compound was determined as:
Percent cell death = [1−((RLU determined for sample with test compound present—1) divided by (RLU determined in the presence of vehicle—1))] * 100.

[11] = tested on: Enterococcus faecium ATCC 804B; assay: Antimicrobial activity test (growth, OD600); format: cell-based; details: ATCC804B, read-out: Bacterial Viability (IC50)
[12] = tested on: Campylobacter jejuni; assay: Antimicrobial activity test (growth, OD600); format: cell-based; details: read-out: Bacterial Viability (IC50)
[13] = tested on: E. coli BL21; assay: Antimicrobial activity test (growth, OD600); format: cell-based; details: Escherichia coli, BL21, BL21; 20 h, 37 °C, OD600; read-out: Bacterial Viability IC50, E. coli BL21
[14] = tested on: PhoA secretion in E. coli MC4100; assay: microbe, parasite or virus in culture; format: cell-based; details: Escherichia coli; PNPP colorimetric lab-scale assay; read-out: Inhibition of PhoA Secretion IC50, Lab-Scale
[15] = tested on: Streptococcus pneumoniae; assay: Antimicrobial activity test (growth, OD600); format: cell-based; details: read-out: Bacterial Viability (IC50)
[16] = tested on: Haemophilus influenzae; assay: Antimicrobial activity test (growth, OD600); format: cell-based; details: read-out: Bacterial Viability (IC50)
[17] = tested on: Staphylococcus aureus ATC6538P; assay: Antimicrobial activity test (growth, OD600); format: cell-based; details: Staphylococcus aureus ATC6538P; read-out: Bacterial Viability (IC50)
[18] = tested on: Pseudomonas aeruginosa 3/88; assay: Antimicrobial activity test (growth, OD600); format: cell-based; details: read-out: Bacterial Viability (IC50)
[19] = tested on: Proteus vulgaris; assay: Antimicrobial activity test (growth, OD600); format: cell-based; details: read-out: Bacterial Viability (IC50)
[20] = tested on: Salmonella typhimurium; assay: Antimicrobial activity test (growth, OD600); format: cell-based; details: Salmonella enterica, read-out: Bacterial Viability (IC50)
[21] = tested on: Mycobacterium abscessus ATCC19977; assay: Antimicrobial activity test (growth, OD600); format: cell-based; details: Mycobacteroides abscessus, read-out: Bacterial Viability (IC50)
[22] = tested on: Klebsiella pneumoniae ATCC 27799; assay: Antimicrobial activity test (growth, OD600); format: cell-based; details: ATCC27799, read-out: Bacterial Viability (IC50)
[23] = pH 7, aqueous buffer, turbidimetry 570 nm, PBS pH 7–7.2, 0.5% DMSO, 1 h, read-out: Aqueous Solubility (soluble at)
[24] = pH 7.1, aqueous buffer, selection threshold, Figure 1B, read-out: Solubility

SMILES | IC50 [1] [µM] | IC50 [2] [µM] | IC50 [3] [µM] | IC50 [4] [µM] | IC50 [5] [µM] | IC50 [6] [µM] | solubility at 1 h [7, 23] | solubility at 1 h [7, 24] [µM] | Antibacterial character [8] | IC50 [8] [µM] | IC50 [9] [µM] | Human cell toxicity LD50 [10] [µM] | Toxicity of Mammalian Cells (HEK293T) LD50 [10] [µM] | IC50 [11] [µM] | IC50 [12] [µM] | IC50 [13] [µM] | IC50 [14] [µM] | IC50 [15] [µM] | IC50 [16] [µM] | IC50 [17] [µM] | further results
O=C(/C=C/c1csnn1)c1ccccc1Cl [HSI#01] | 23.2 | 37.6 | > 100 | > 100 | > 100 | > 100 | 50 µM and 12.5 µg/mL | > 15 | bacteriocidal | 1 to 37 | > 100 | > 15 | 6.7 | 34.5 | > 100 | > 100 | 12.5 | 77.8 | > 100 | 14.8 | IC50 [18]: > 100 µM; IC50 [19]: 80 to 100 µM; IC50 [20]: > 100 µM; IC50 [21]: 33.8 µM; IC50 [22]: 80 to 100 µM
O=C(/C=C/c1csnn1)c1cc(Cl)ccc1Cl [HSI#05] | 10.3 | 27.8 | > 100 | > 100 | > 100 | > 100 | 4.8 µg/mL | > 15 | bacteriocidal | 1 to 37 | > 100 | > 15 | 6.7 | 9.4 | > 100 | > 100 | 7 | 29.7 | > 100 | 4.1 | IC50 [18]: > 100 µM; IC50 [19]: > 100 µM; IC50 [20]: > 100 µM; IC50 [21]: 17.9 µM; IC50 [22]: > 100 µM
O=C(/C=C/c1csnn1)c1cccc2ccccc12 [HSI#10] | 12.2 | 26 | > 100 | > 100 | > 100 | > 100 | 4.4 µg/mL | > 15 | bacteriocidal | 1 to 37 | > 100 | > 15 | 6.7 | 23.5 | > 100 | > 100 | 19.6 | 60.9 | > 100 | 7.8 | IC50 [18]: > 100 µM; IC50 [19]: > 100 µM; IC50 [20]: > 100 µM; IC50 [21]: 21.8 µM; IC50 [22]: > 100 µM
